Values of other authors as cited in US20260272874A1, “COMPOUNDS FOR THE TREATMENT AND PREVENTION OF VIRAL DISEASES” (priority 2023, published 2026).

Tests used:
[1] = test system: RNA helicase enzyme eIF4A; conditions: previous studies
[2] = test system: corona viruses, SARS and MERS virus
[3] = test system: SARS-CoV-2
[4] = test system: coronavirus

Silvesterol
inhibition of RNA helicase enzyme eIF4A [1]: potent and selective inhibitor
antiviral activity [2]: broad spectrum antiviral activity

COc1cc2c(c(OC)n1)[C@]1(O)[C@H](O)[C@H](CN(C)C)[C@@H](c3ccccc3)[C@]1(c1ccc(C#N)cc1)O2 [Zotatifin]
antiviral activity against SARS-CoV-2 [3]: shows antiviral activity

4E2RCat
coronavirus replication [4]: capable of blocking coronavirus replication
